Results as given in patent publication US6761919B2, “Ambient stable beverage” (priority 2000, dated 2004).

What was measured:
Assay type in all cases: cell-based
[1] = system: yeast Saccharomyces cerevisiae X2180-1B; assay: Growth of yeast in matrix of tubes of Ready to Drink tea (0.14% tea) with preservatives and essential oil component, OD 600 nm at 14 days; details: RTD tea pH 3.4, cinnamic acid 1-175 ppm, 14 days 25° C.; for tubes supporting yeast growth compared with control without essential oil (FIG. 1): sorbic acid 1-250 ppm; for tubes supporting yeast growth compared with control without essential oil (FIG. 13): benzoic acid 1-250 ppm; for tubes supporting yeast growth compared with control without essential oil (FIG. 19): sorbic acid+benzoic acid 1:1 1-250 ppm
Procedure: The matrix of 30 ml tubes each contained 10 ml RTD tea, pH 3.4. […] Tubes were inoculated with 10^4 cells of the yeast Saccharomyces cerevisiae X2180-1B. Tubes were then incubated for 14 days at 25° C. to allow surviving yeasts to grow out. At 14 days growth was measured by optical density at 600 nm in x11 diluted samples, and blank values subtracted.
The matrix of 30 ml tubes each containing 10 ml RTD tea pH 3.4, all contained 100 ppm citral dimethyl acetal. […] Tubes were inoculated with 10^4 cells of the yeast Saccharomyces cerevisiae X2180-1B. Tubes were incubated for 14 days at 25° C. to allow surviving yeasts to grow out. At 14 days growth was measured by optical density at 600 nm in x11 diluted samples, and blank values subtracted.
The matrix of 30 ml tubes each containing 10 ml RTD tea pH 3.4, all contained 100 ppm cumic alcohol. […] Tubes were inoculated with 10^4 cells of the yeast Saccharomyces cerevisiae X2180-1B. Tubes were incubated for 14 days at 25° C. to allow surviving yeasts to grow out. At 14 days growth was measured by optical density at 600 nm in x11 diluted samples, and blank values subtracted.
The matrix of 30 ml tubes each containing 10 ml RTD tea pH 3.4, all contained 100 ppm citral. […] Tubes were inoculated with 10^4 cells of the yeast Saccharomyces cerevisiae X2180-1B. Tubes were incubated for 14 days at 25° C. to allow surviving yeasts to grow out. At 14 days growth was measured by optical density at 600 nm in x11 diluted samples, and blank values subtracted.
The matrix of 30 ml tubes each containing 10 ml RTD tea pH 3.4, all contained 50 ppm 3,7-dimethyl octanol. […] Tubes were inoculated with 10^4 cells of the yeast Saccharomyces cerevisiae X2180-1B. Tubes were incubated for 14 days at 25° C. to allow surviving yeasts to grow out. At 14 days growth was measured by optical density at 600 nm in x11 diluted samples, and blank values subtracted.
The matrix of 30 ml tubes each containing 10 ml RTD tea pH 3.4, all contained 100 ppm myrtenol. […] Tubes were inoculated with 10^4 cells of the yeast Saccharomyces cerevisiae X2180-1B. Tubes were incubated for 14 days at 25° C. to allow surviving yeasts to grow out. At 14 days growth was measured by optical density at 600 nm in x11 diluted samples, and blank values subtracted.
The matrix of 30 ml tubes each containing 10 ml RTD tea pH 3.4, all contained 100 ppm piperonyl acetate. […] Tubes were inoculated with 10^4 cells of the yeast Saccharomyces cerevisiae X2180-1B. Tubes were incubated for 14 days at 25° C. to allow surviving yeasts to grow out. At 14 days growth was measured by optical density at 600 nm in x11 diluted samples, and blank values subtracted.
The matrix of 30 ml tubes each containing 10 ml RTD tea pH 3.4, all contained 15 ppm trans, trans-2,4-decadienal. […] Tubes were inoculated with 10^4 cells of the yeast Saccharomyces cerevisiae X2180-1B. Tubes were incubated for 14 days at 25° C. to allow surviving yeasts to grow out. At 14 days growth was measured by optical density at 600 nm in x11 diluted samples, and blank values subtracted.
The matrix of 30 ml tubes each containing 10 ml RTD tea pH 3.4, all contained 100 ppm δ-decanolactone. […] Tubes were inoculated with 10^4 cells of the yeast Saccharomyces cerevisiae X2180-1B. Tubes were incubated for 14 days at 25° C. to allow surviving yeasts to grow out. At 14 days growth was measured by optical density at 600 nm in x11 diluted samples, and blank values subtracted.
The matrix of 30 ml tubes each containing 10 ml RTD tea pH 3.4, all contained 25 ppm citral dimethyl acetal and 35 ppm cumic alcohol. […] Tubes were inoculated with 10^4 cells of the yeast Saccharomyces cerevisiae X2180-1B. Tubes were incubated for 14 days at 25° C. to allow surviving yeasts to grow out. At 14 days growth was measured by optical density at 600 nm in x11 diluted samples, and blank values subtracted.
The matrix of 30 ml tubes each contained 10 ml RTD tea, pH 3.4. […]

[2] = system: fungi; details: Table I, preferred essential oils
[3] = system: yeast Saccharomyces cerevisiae X2180-1B; assay: Growth of yeast in matrix of tubes of synthetic soft drink (0% tea) with preservatives and essential oil component, OD 600 nm at 14 days; details: synthetic soft drink pH 3.4, 100 ppm essential oil component, cinnamic acid 1-175 ppm, 14 days 25° C.
Procedure: (§1) Synthetic soft drink contained glucose, 8%w/v, citric acid 3 g/l, potassium orthophosphate 1 g/l, magnesium chloride 0.1 g/l and yeast extract 0.1 g/l. The matrix of 30 ml tubes each contained 10 ml synthetic soft drink, pH 3.4. Sorbic acid was used in the range 1-250 ppm and cinnamic acid in the range 1-175 ppm. Tubes were inoculated with 10^4 cells of the yeast Saccharomyces cerevisiae X2180-1B. Tubes were then incubated for 14 days at 25° C. to allow surviving yeasts to grow out. At 14 days growth was measured by optical density at 600 nm in x11 diluted samples, and blank values subtracted.
as §1, with “each containing” for “each contained”, “soft drink” for “soft drink,”, “pH 3.4, all contained 100 ppm citral dimethyl acetal.” for “pH 3.4.”, “were” for “were then”
Synthetic soft drink contained glucose, 8%w/v, citric acid 3 g/l, potassium orthophosphate 1 g/l, magnesium chloride 0.1 g/l and yeast extract 0.1 g/l. The matrix of 30 ml tubes each contained 10 ml synthetic soft drink, pH 3.4. […] At 14 days growth was measured by optical density at 600 nm in x11 diluted samples, and blank values subtracted.
Synthetic soft drink contained glucose, 8%w/v, citric acid 3 g/l, potassium orthophosphate 1 g/l, magnesium chloride 0.1 g/l and yeast extract 0.1 g/l. […] At 14 days growth was measured by optical density at 600 nm in x11 diluted samples, and blank values subtracted.
Synthetic soft drink contained glucose, 8%w/v, citric acid 3 g/l, potassium orthophosphate 1 g/l, magnesium chloride 0.1 g/l and yeast extract 0.1 g/l. […] At 14 days growth was measured by optical density at 600 nm in x11 diluted samples, and blank values subtracted. […]

[4] = system: spoilage mould Aspergillus niger POL10; assay: Growth of spoilage mould in RTD tea with preservatives and increasing citral dimethyl acetal, visual at 28 days; details: RTD tea pH 3.1, 0.14% tea; sorbic acid 200 ppm, cinnamic acid 60 ppm, EDTA 30 ppm; 10^4 conidiaspores; 28 days 25° C.; tested 1-400 ppm
Procedure: Growth of spoilage mould Aspergillus niger POL10 in 30 ml tubes each contained 10 ml RTD tea, pH 3.1, 0.14% tea. All tubes containing sorbic acid 200 ppm, cinnamic acid 60 ppm, EDTA 30 ppm. An essential oil component, citral dimethyl acetal, was added in increasing concentration to tubes, in the range 1-400 ppm. Tubes were inoculated with 10^4 conidiaspores of the mould Aspergillus niger POL10. Tubes were then incubated for 28 days at 25° C. to allow moulds to grow out. At 28 days growth was measured visually. Mould growth was visible in all tubes, excepting those containing >80 ppm citral dimethyl acetal.

[5] = 100 ppm essential oil component

## CC1(C)C2CC=C(CO)C1C2 (stereo not shown) [Myrtenol]
[1]; [5]
  tubes supporting yeast growth compared with control without essential oil (FIG. 1): very substantially fewer tubes supporting yeast growth

## CC(C)CCCC(C)CCO (stereo not shown) [3,7-Dimethyl-1-octanol]
[1]; 50 ppm essential oil component
  tubes supporting yeast growth compared with control without essential oil (FIG. 13): very substantially fewer tubes supporting yeast growth
  tubes supporting yeast growth compared with control without essential oil (FIG. 1): very substantially fewer tubes supporting yeast growth
  tubes supporting yeast growth compared with control without essential oil (FIG. 19): very substantially fewer tubes supporting yeast growth

## CCCCCCCC(=O)O [Octanoic acid (caprylic)]
[2]
  MIC (ppm): 115 ppm

## CC(=O)OCc1ccc2c(c1)OCO2 [Piperonyl acetate]
[1]; [5]
  tubes supporting yeast growth compared with control without essential oil (FIG. 1): very substantially fewer tubes supporting yeast growth

## CCCCC/C=C/C=C/C=O [trans,trans-2,4-Decadienal]
[1]; 15 ppm essential oil component
  tubes supporting yeast growth compared with control without essential oil (FIG. 1): very substantially fewer tubes supporting yeast growth

## CC(C)c1ccc(CO)cc1 [Cumic alcohol]
[1]; [5]
  tubes supporting yeast growth compared with control without essential oil (FIG. 1): very substantially fewer tubes supporting yeast growth

## CC(C)=CCCC(C)=CC=O [Citral]
[1]; [5]
  tubes supporting yeast growth compared with control without essential oil (FIG. 1): very substantially fewer tubes supporting yeast growth

## COC(C=C(C)CCC=C(C)C)OC [Citral dimethyl acetal]
[1]; [5]
  tubes supporting yeast growth compared with control without essential oil (FIG. 13): very substantially fewer tubes supporting yeast growth
  tubes supporting yeast growth compared with control without essential oil (FIG. 1): very substantially fewer tubes supporting yeast growth
  tubes supporting yeast growth compared with control without essential oil (FIG. 19): very substantially fewer tubes supporting yeast growth
[3]; benzoic acid 1-250 ppm
  tubes supporting yeast growth compared with control without essential oil (FIG. 17): very substantially fewer tubes supporting yeast growth
[3]; sorbic acid 1-250 ppm
  tubes supporting yeast growth compared with control without essential oil (FIG. 11): very substantially fewer tubes supporting yeast growth
[3]; sorbic acid+benzoic acid 1:1 1-250 ppm
  tubes supporting yeast growth compared with control without essential oil (FIG. 23): very substantially fewer tubes supporting yeast growth
[4]
  concentration at which no mould growth was visible: > 80 ppm
